A short description of the series: PK in rats after PO dosing of the prodrug of Example 1: circulating parent Compound I and prodrug. The series is classed as in vivo. The following applies: for AUC / Cmax / Tmax: rat, in vivo, analyte = labelled substance.
The mark [1] stands for this setting: 5 mg/kg, Example 1 dosed PO at 5 mpk.
Where [2] appears, read: 25 mg/kg, Example 1 dosed PO at 25 mpk.
Where [3] appears, read: 150 mg/kg, Example 1 dosed PO at 150 mpk.

SMILES strings stand for the structures.

As for `[2H]C([2H])([2H])NC(=O)c1cnc(NC(=O)C2CC2)cc1Nc1cccc(-c2nnn(C)n2)c1OC` [Compound I], the “AUC Multiple+” value came to 11X (Example 1 dosed PO at 5 mpk), 57X (Example 1 dosed PO at 25 mpk) and 473X (Example 1 dosed PO at 150 mpk). Further, the AUC (as a rule, the area under the concentration-time curve, a measure of exposure) stood at 19.2 ± 1.7 µM·h under setting [1], 96.9 ± 13.2 µM·h under setting [2] and 804 ± 26.9 µM·h under setting [3]. Also, the Cmax – broadly, the maximum level reached in the sampled fluid or tissue – by setting is: under setting [1], 4.91 ± 1.4 µM; under setting [2], 13 ± 1.4 µM; under setting [3], 58.2 ± 5.7 µM. The Tmax – broadly, the time from dosing to the highest level – under setting [1] worked out at 0.5 h; the Tmax under setting [2] is 3 h; the time of peak concentration (Tmax) under setting [3] was determined as 3 h.

Turning to `[2H]C([2H])([2H])NC(=O)c1cn(COP(=O)([O-])[O-])/c(=N/C(=O)C2CC2)cc1Nc1cccc(-c2nnn(C)n2)c1OC.[Na+].[Na+]` [Example 1], the “circulating prodrug as % of parent” value (PO, 150 mpk dose) is on record as “less than 0.05%”. Moreover, the “exposure to the prodrug (circulating prodrug following administration)” value (PO, therapeutic doses (5 and 25 mpk)) is “no exposure”. Under setting [3], the AUC is 0.33 ± 0.21 µM·h, the Cmax was determined as 0.69 ± 0.24 µM and the Tmax turned out to be 0.25 h.
